# The source made the active and inactive calls. No cut-off for these calls is given here.
# Experiments:
# Clostridioides difficile [1] = assay: Antimicrobial activity against nonepidemic Clostridium difficile ATCC 9689 by broth dilution method; type: functional
# Clostridioides difficile [2] = assay: Antimicrobial activity against nonepidemic Clostridium difficile J29 by broth dilution method; type: functional
# Clostridioides difficile [3] = assay: Antimicrobial activity against epidemic Clostridium difficile BI9 by broth dilution method; type: functional
# Clostridioides difficile [4] = assay: Antimicrobial activity against epidemic Clostridium difficile BI6-8-17 by broth dilution method; type: functional
# Clostridioides difficile [5] = assay: Antimicrobial activity against fluoroquinolone-resistant epidemic Clostridium difficile NAP1 by broth dilution method; type: functional
# Clostridioides difficile [6] = assay: Antimicrobial activity against fluoroquinolone-susceptible nonepidemic Clostridium difficile strain6 by broth dilution method; type: functional
# Clostridioides difficile [7] = assay: Increase in toxin level in epidemic Clostridium difficile BI6-8-17 infected CF1 mouse at 1.4 mg/day, sc for 4 days assessed after 2 days of last treatment; type: functional, organism-based
# Clostridioides difficile [8] = assay: Increase in toxin level in nonepidemic Clostridium difficile ATCC 9689 infected in CF1 mouse at 0.2 mg/day, sc for 4 days assessed after 2 days of last treatment; type: functional, organism-based
# Clostridioides difficile [9] = assay: Increase in toxin level in nonepidemic Clostridium difficile J29 infected CF1 mouse at 0.2 mg/day, sc for 4 days assessed after 2 days of last treatment; type: functional, organism-based
# Clostridioides difficile [10] = assay: Increase in toxin level in epidemic Clostridium difficile BI9 infected CF1 mouse at 0.2 mg/day, sc for 4 days assessed after 2 days of last treatment; type: functional, organism-based
# Clostridioides difficile [11] = assay: Increase in toxin level in epidemic Clostridium difficile BI6-8-17 infected CF1 mouse at 0.2 mg/day, sc for 4 days assessed after 2 days of last treatment; type: functional, organism-based
# Clostridioides difficile [12] = assay: Effect on growth of nonepidemic Clostridium difficile ATCC 9689 in CF1 mouse assessed as increase in bacterial density in cecal content at 2 mg/day, sc for 4 days assessed after 2 days of last treatment; type: functional, organism-based
# Clostridioides difficile [13] = assay: Effect on growth of nonepidemic Clostridium difficile J29 in CF1 mouse assessed as increase in bacterial density in cecal content at 2 mg/day, sc for 4 days assessed after 2 days of last treatment; type: functional, organism-based
# Clostridioides difficile [14] = assay: Effect on growth of epidemic Clostridium difficile BI9 in CF1 mouse assessed as increase in bacterial density in cecal content at 2 mg/day, sc for 4 days assessed after 2 days of last treatment; type: functional, organism-based
# Clostridioides difficile [15] = assay: Effect on growth of epidemic Clostridium difficile BI6-8-17 in CF1 mouse assessed as increase in bacterial density in cecal content at 2 mg/day, sc for 4 days assessed after 2 days of last treatment; type: functional, organism-based
# Clostridioides difficile [16] = assay: Effect on growth of nonepidemic Clostridium difficile ATCC 9689 in CF1 mouse assessed as increase in bacterial density in cecal content at 1.4 mg/day, sc for 4 days assessed after 2 days of last treatment; type: functional, organism-based
# Clostridioides difficile [17] = assay: Effect on growth of nonepidemic Clostridium difficile J29 in CF1 mouse assessed as increase in bacterial density in cecal content at 1.4 mg/day, sc for 4 days assessed after 2 days of last treatment; type: functional, organism-based
# Clostridioides difficile [18] = assay: Effect on growth of epidemic Clostridium difficile BI9 in CF1 mouse assessed as increase in bacterial density in cecal content at 1.4 mg/day, sc for 4 days assessed after 2 days of last treatment; type: functional, organism-based
# Clostridioides difficile [19] = assay: Effect on growth of epidemic Clostridium difficile BI6-8-17 in CF1 mouse assessed as increase in bacterial density in cecal content at 1.4 mg/day, sc for 4 days assessed after 2 days of last treatment; type: functional, organism-based
# Clostridioides difficile [20] = assay: Increase in toxin level in nonepidemic Clostridium difficile ATCC 9689 infected in CF1 mouse at 2 mg/day, sc for 4 days assessed after 2 days of last treatment; type: functional, organism-based
# Clostridioides difficile [21] = assay: Increase in toxin level in nonepidemic Clostridium difficile J29 infected CF1 mouse at 2 mg/day, sc for 4 days assessed after 2 days of last treatment; type: functional, organism-based
# Clostridioides difficile [22] = assay: Increase in toxin level in epidemic Clostridium difficile BI9 infected CF1 mouse at 2 mg/day, sc for 4 days assessed after 2 days of last treatment; type: functional, organism-based
# Clostridioides difficile [23] = assay: Increase in toxin level in epidemic Clostridium difficile BI6-8-17 infected CF1 mouse at 2 mg/day, sc for 4 days assessed after 2 days of last treatment; type: functional, organism-based
# Clostridioides difficile [24] = assay: Increase in toxin level in nonepidemic Clostridium difficile ATCC 9689 infected in CF1 mouse at 1.4 mg/day, sc for 4 days assessed after 2 days of last treatment; type: functional, organism-based
# Clostridioides difficile [25] = assay: Increase in toxin level in nonepidemic Clostridium difficile J29 infected CF1 mouse at 1.4 mg/day, sc for 4 days assessed after 2 days of last treatment; type: functional, organism-based
# Clostridioides difficile [26] = assay: Increase in toxin level in epidemic Clostridium difficile BI9 infected CF1 mouse at 1.4 mg/day, sc for 4 days assessed after 2 days of last treatment; type: functional, organism-based
# Clostridioides difficile [27] = assay: Effect on growth of fluoroquinolone-susceptible nonepidemic Clostridium difficile strain6 in CF1 mouse assessed as increase in bacterial density in cecal content at dosed sc for 5 days; type: functional, organism-based
# Clostridioides difficile [28] = assay: Inhibition of clindamycin-susceptible epidemic Clostridium difficile NAP1 in CF1 mouse at 0.2 mg/day, sc for 5 days; type: functional, organism-based
# Clostridioides difficile [29] = assay: Inhibition of clindamycin-susceptible nonepidemic Clostridium difficile strain6 in CF1 mouse at 0.2 mg/day, sc for 5 days; type: functional, organism-based
# Clostridioides difficile [30] = assay: Inhibition of clindamycin-susceptible epidemic Clostridium difficile NAP1 in CF1 mouse at 0.2 mg/day, sc for 5 days assessed after 2 days of last treatment; type: functional, organism-based
# Clostridioides difficile [31] = assay: Inhibition of clindamycin-susceptible nonepidemic Clostridium difficile strain6 in CF1 mouse at 0.2 mg/day, sc for 5 days assessed after 2 days of last treatment; type: functional, organism-based
# [32] = Drug level in Clostridium difficile infected CF1 mouse stool at 0.2 mg/day for 4 days; type: ADME; conditions: read-out: Drug uptake
# Clostridioides difficile [33] = assay: Effect on growth of epidemic Clostridium difficile BI9 in CF1 mouse assessed as increase in bacterial density in cecal content at 0.4 mg/day, sc for 4 days assessed after 2 days of last treatment; type: functional, organism-based
# [34] = Drug level in Clostridium difficile infected CF1 mouse stool at 0.375 mg/day for 4 days; type: ADME; conditions: read-out: Drug uptake
structure (smiles),measurement,setting,value
CO/N=C(\C(=O)N[C@@H]1C(=O)N2C(C(=O)O)=C(CSc3nc(=O)c(O)nn3C)CS[C@H]12)c1csc(N)n1 [CEFTRIAXONE],MIC,Clostridioides difficile [1],32 µg/mL
same,MIC,Clostridioides difficile [2],64 µg/mL
same,MIC,Clostridioides difficile [3],32 µg/mL
same,MIC,Clostridioides difficile [4],32 µg/mL
same,MIC,Clostridioides difficile [5],16 µg/mL
same,MIC,Clostridioides difficile [6],32 µg/mL
same,Activity,Clostridioides difficile [7],Active
same,Activity,Clostridioides difficile [8],Active
same,Activity,Clostridioides difficile [9],Active
same,Activity,Clostridioides difficile [10],Active
same,Activity,Clostridioides difficile [11],Active
same,Activity,Clostridioides difficile [12],Active
same,Activity,Clostridioides difficile [13],Active
same,Activity,Clostridioides difficile [14],Active
same,Activity,Clostridioides difficile [15],Active
same,Activity,Clostridioides difficile [16],Active
same,Activity,Clostridioides difficile [17],Active
same,Activity,Clostridioides difficile [18],Active
same,Activity,Clostridioides difficile [19],Active
same,Activity,Clostridioides difficile [20],Active
same,Activity,Clostridioides difficile [21],Active
same,Activity,Clostridioides difficile [22],Active
same,Activity,Clostridioides difficile [23],Active
same,Activity,Clostridioides difficile [24],Active
same,Activity,Clostridioides difficile [25],Active
same,Activity,Clostridioides difficile [26],Active
same,Activity,Clostridioides difficile [27],Active
CCC[C@@H]1C[C@@H](C(=O)N[C@@H]([C@H]2O[C@H](SC)[C@H](O)[C@@H](O)[C@H]2O)[C@H](C)Cl)N(C)C1 [CLINDAMYCIN],MIC,Clostridioides difficile [1],> 256 µg/mL
same,MIC,Clostridioides difficile [2],> 256 µg/mL
same,MIC,Clostridioides difficile [3],> 256 µg/mL
same,MIC,Clostridioides difficile [4],> 256 µg/mL
same,MIC,Clostridioides difficile [5],2 µg/mL
same,MIC,Clostridioides difficile [6],2 µg/mL
same,Activity,Clostridioides difficile [7],Active
same,Activity,Clostridioides difficile [8],Active
same,Activity,Clostridioides difficile [9],Active
same,Activity,Clostridioides difficile [10],Active
same,Activity,Clostridioides difficile [11],Active
same,Activity,Clostridioides difficile [12],Active
same,Activity,Clostridioides difficile [13],Active
same,Activity,Clostridioides difficile [14],Active
same,Activity,Clostridioides difficile [15],Active
same,Activity,Clostridioides difficile [16],Active
same,Activity,Clostridioides difficile [17],Active
same,Activity,Clostridioides difficile [18],Active
same,Activity,Clostridioides difficile [19],Active
same,Activity,Clostridioides difficile [20],Active
same,Activity,Clostridioides difficile [21],Active
same,Activity,Clostridioides difficile [22],Active
same,Activity,Clostridioides difficile [24],Active
same,Activity,Clostridioides difficile [25],Active
same,Activity,Clostridioides difficile [26],Active
same,Activity,Clostridioides difficile [28],Active
same,Activity,Clostridioides difficile [29],Active
same,Activity,Clostridioides difficile [30],inactive
same,Activity,Clostridioides difficile [31],inactive
COc1c(N2CCNC(C)C2)c(F)cc2c(=O)c(C(=O)O)cn(C3CC3)c12 (stereo not drawn) [GATIFLOXACIN],MIC,Clostridioides difficile [1],< 2 µg/mL
same,MIC,Clostridioides difficile [2],32 µg/mL
same,MIC,Clostridioides difficile [3],64 µg/mL
same,MIC,Clostridioides difficile [4],32 µg/mL
same,MIC,Clostridioides difficile [5],256 µg/mL
same,MIC,Clostridioides difficile [6],4 µg/mL
same,Activity,Clostridioides difficile [7],Active
same,Activity,Clostridioides difficile [8],Active
same,Activity,Clostridioides difficile [9],Active
same,Activity,Clostridioides difficile [10],Active
same,Activity,Clostridioides difficile [11],Active
same,concentration at 96 h,[32],76600 ng/g
same,Activity,Clostridioides difficile [33],Active
same,Activity,Clostridioides difficile [20],Active
same,Activity,Clostridioides difficile [21],Active
same,Activity,Clostridioides difficile [22],Active
same,Activity,Clostridioides difficile [23],Active
same,Activity,Clostridioides difficile [24],Active
same,Activity,Clostridioides difficile [25],Active
same,Activity,Clostridioides difficile [26],Active
C[C@H]1COc2c(N3CCN(C)CC3)c(F)cc3c(=O)c(C(=O)O)cn1c23.C[C@H]1COc2c(N3CCN(C)CC3)c(F)cc3c(=O)c(C(=O)O)cn1c23.O [LEVOFLOXACIN],MIC,Clostridioides difficile [1],8 µg/mL
same,MIC,Clostridioides difficile [2],256 µg/mL
same,MIC,Clostridioides difficile [3],256 µg/mL
same,MIC,Clostridioides difficile [4],> 256 µg/mL
same,MIC,Clostridioides difficile [5],> 256 µg/mL
same,MIC,Clostridioides difficile [6],8 µg/mL
same,concentration at 96 h,[34],58100 ng/g

# Source: ChEMBL document CHEMBL1155776, “Effect of fluoroquinolone treatment on growth of and toxin production by epidemic and nonepidemic clostridium difficile strains in the cecal contents of mice” (Antimicrob Agents Chemother, 2007)
